Measurements taken from patent publication US5098931A, “7-substituted HMG-CoA reductase inhibitors” (Merck & Co., Inc., priority 1990, dated 1992).

These compounds were tested against T1, HMG-CoA reductase (Rattus norvegicus, UniProt P51639) (assay: intrinsic HMG-CoA reductase inhibition, published in vitro protocol (J. Med. Chem., 28, p. 347-358 (1985))). Details: IC50 of test compound compared with that of compactin (mevastatin) determined simultaneously; compactin assigned a value of 100.
T1 sequence (P51639 1-887): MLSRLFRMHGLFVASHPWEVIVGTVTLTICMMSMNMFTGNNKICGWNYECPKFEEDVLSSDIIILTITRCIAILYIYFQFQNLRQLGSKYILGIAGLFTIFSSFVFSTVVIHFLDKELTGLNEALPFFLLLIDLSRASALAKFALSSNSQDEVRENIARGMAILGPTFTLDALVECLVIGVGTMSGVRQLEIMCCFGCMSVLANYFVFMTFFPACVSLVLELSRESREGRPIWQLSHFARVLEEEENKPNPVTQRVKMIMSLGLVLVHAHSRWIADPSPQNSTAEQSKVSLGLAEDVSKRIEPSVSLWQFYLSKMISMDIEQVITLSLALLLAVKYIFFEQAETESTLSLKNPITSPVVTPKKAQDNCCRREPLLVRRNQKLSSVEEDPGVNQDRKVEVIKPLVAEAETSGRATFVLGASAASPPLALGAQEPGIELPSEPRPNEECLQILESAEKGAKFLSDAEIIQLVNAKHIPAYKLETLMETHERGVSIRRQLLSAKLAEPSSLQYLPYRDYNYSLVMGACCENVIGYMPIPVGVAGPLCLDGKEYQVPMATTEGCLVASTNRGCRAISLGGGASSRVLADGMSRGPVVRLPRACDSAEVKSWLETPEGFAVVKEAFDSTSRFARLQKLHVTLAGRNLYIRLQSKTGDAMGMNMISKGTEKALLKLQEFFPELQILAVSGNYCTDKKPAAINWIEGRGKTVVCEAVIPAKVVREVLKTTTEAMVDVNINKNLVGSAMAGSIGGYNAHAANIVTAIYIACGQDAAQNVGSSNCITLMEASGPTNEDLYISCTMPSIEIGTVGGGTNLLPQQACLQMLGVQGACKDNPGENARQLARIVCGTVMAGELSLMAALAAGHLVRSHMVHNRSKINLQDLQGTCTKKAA
Assay type: biochemical
Protocol: The intrinsic HMG-CoA reductase inhibition activity of the claimed compounds is measured in the in vitro protocol published in J. Med. Chem., 28, p. 347-358 (1985). […] Representative of the intrinsic HMG-CoA reductase inhibitory activities of the claimed compounds are the following relative potencies for compounds of formula (I).
In the case of `CCC(C)(C)C(=O)O[C@H]1[C@@H](O)[C@@H](C)C=C2C=C[C@H](C)[C@H](CC[C@@H]3C[C@@H](O)CC(=O)O3)[C@H]21` [6(R)-[2-[8(R)-(2,2-dimethylbutyryloxy)-2(S)-methyl-6(S)-methyl-7(S)-hydroxy-1,2,6,7,8,8a(R)-hexahydronaphthyl-1(S)]ethyl]-4(R)-hydroxy-3,4,5,6-tetrahydro-2H-pyran-2-one], the “Relative Potency (Compactin = 100)” value is reported as 214. With `CCC(C)(C)C(=O)O[C@H]1[C@H](C)[C@@H](C)C=C2C=C[C@H](C)[C@H](CC[C@@H]3C[C@@H](O)CC(=O)O3)[C@H]21` [6(R)-[2-[8(R)-(2,2-dimethylbutyryloxy)-2(S)-methyl-6(S)-methyl-7(R)-methyl-1,2,6,7,8,8a(R)-hexahydronaphthyl-1(S)]ethyl]-4(R)-hydroxy-3,4,5,6-tetrahydro-2H-pyran-2-one] the “Relative Potency (Compactin = 100)” value was 174. For `CCC(C)(C)C(=O)O[C@@H]1[C@H]2C(=C[C@H](C)[C@H]1[C@H](O)c1ccccc1)C=C[C@H](C)[C@@H]2CC[C@@H]1C[C@@H](O)CC(=O)O1` [6R-[2-[8(R)-(2,2-dimethylbutyryloxy)-2(S)-methyl-6(S)-methyl-7(S)-(1(S)-hydroxybenzyl)-1,2,6,7,8,8a(R)-hexahydronaphthyl-1(S)]-ethyl]-4(R)-hydroxy-3,4,5,6-tetrahydro-2H-pyran-2-one], the “Relative Potency (Compactin = 100)” value was 137. For `CCC(C)(C)C(=O)O[C@@H]1[C@H]2C(=C[C@H](C)[C@H]1[C@@H](C)O)C=C[C@H](C)[C@@H]2CC[C@@H]1C[C@@H](O)CC(=O)O1` [6R-[2-[8(R)-(2,2-dimethylbutyryloxy)-2(S)-methyl-6(S)-methyl-7(S)-(1(R)-hydroxyethyl)-1,2,6,7,8,8a(R)-hexahydronaphthyl-1(S)]ethyl]-4(R)-hydroxy-3,4,5,6-tetrahydro-2H-pyran-2-one], the “Relative Potency (Compactin = 100)” value was 124. For `CCC(C)(C)C(=O)O[C@H]1[C@H](CO)[C@@H](C)C=C2C=C[C@H](C)[C@H](CC[C@@H]3C[C@@H](O)CC(=O)O3)[C@H]21` [6(R)-[2-[8(R)-(2,2-dimethylbutyryloxy)-2(S)-methyl-6(S)-methyl-7(S)-hydroxymethyl-1,2,6,7,8,8a(R)-hexahydronaphthyl-1(S)]ethyl]-4(R)-hydroxy-3,4,5,6-tetrahydro-2H-pyran-2-one], the “Relative Potency (Compactin = 100)” value was 262. With `CCC(C)(C)C(=O)O[C@@H]1[C@H]2C(=C[C@H](C)[C@H]1[C@H](C)O)C=C[C@H](C)[C@@H]2CC[C@@H]1C[C@@H](O)CC(=O)O1` [6R-[2-[8(R)-(2,2-dimethylbutyryloxy)-2(S)-methyl-6(S)-methyl-7(S)-(1(S)-hydroxyethyl)-1,2,6,7,8,8a(R)-hexahydronaphthyl-1(S)]ethyl]-4(R)-hydroxy-3,4,5,6-tetrahydro-2H-pyran-2-one] the “Relative Potency (Compactin = 100)” value was 350.
